One test has as its system pS6RP. Briefly: In vivo PK/PD study, U87MG tumor xenograft, pS6RP. The following applies: U87MG tumor-bearing xenograft mice, 50 mg/kg po. The procedure:
PC3 cells are cultured at 37° C. in a 5% CO2 incubator using Hams F12 K medium. Ten million (10^7) cells are injected subcutaneously to the right flank region of athymic male mice (Harlan, age: 6-7 weeks, weight: about 20 g). Tumor bearing mice are randomized when the tumor volume reaches about 250 mm^3 and three mice are used per each time point. Test compounds of formula (I) are typically formulated in 40% HPCD in 1×PBS, pH 7.4 or in 10% Ethanol/40% Solutol/50% 50 mM aq. methanesulfonic acid and dosed orally at 50 mg/kg single dose (dose volume—10 mL/kg). Plasma and tumor samples are collected at 0 (vehicle control animals), 1, 4 and 24 hours post dosing. Blood is drawn (retro orbital) to a tube containing 0.2% EDTA for plasma collection. […] Tumor and plasma drug concentrations are measured for PK analysis using LC-MS.
Snap frozen tumor samples are pulverized in a mortar (Belart) containing liquid nitrogen and tumor powder is stored at −80° C. until analysis. […] The detection for pAKT is based on chemiluminescence and pS6RP is based on absorbance. […]
In vivo pharmacokinetic/pharmacodynamic (PK/PD) studies were carried out in a similar manner using U87MG tumor cells (glioma cancer cell line with a PTEN null mutation) and the corresponding tumor-bearing xenograft mice, and compounds of the invention were determined to be active in this assay. […]

Another test concerns the target PI3Kα mutation H1047R (Homo sapiens, UniProt P42336, H1047R). Briefly: PI3 Kinase TR-FRET assay, PI3Kα mutation H1047R. The following applies: read-out: inhibition of PI3Kα mutation H1047R, IC50. Type of test: biochemical. The procedure:
(§1) The ability of compounds of the invention to inhibit PI3K activity was determined in a homogeneous TR-FRET assay using a PI3K assay kit (Millipore, USA; cat #33-016) according to manufacturer's instructions. PI3-Kinases (isoforms α, β, γ and δ) catalyze the phosphorylation of phosphatidylinositol, PIP2 to PIP3 in the presence of ATP and Mg^2+. The PIP3 product is detected by displacement of biotin-PIP3 from an energy transfer complex consisting of Europium labeled anti-GST monoclonal antibody, a GST-tagged PH domain, biotinylated PIP3 and Streptavidin-APC. Excitation of Europium in the complex results in an energy transfer to the APC and a fluorescence emission at 665 nm. The PIP3 product displaces biotin-PIP3 from the complex resulting in a loss of energy transfer and thus a decrease in signal.
(§2) To test for the ability of compounds to inhibit the activity of PI3Kα (wild-type), exemplary compounds of formula (I) were dissolved in DMSO and directly distributed into 384-well plates at a volume of 0.5 μL. 14.5 μL of P110/P85α/PIP2 mixture in buffer (obtained from the Millipore kit) containing MgCl2 (40 mM) and DTT (5 mM) was added to compound wells and incubated for 60 minutes at room temperature. P110/P85α was expressed in SF9 insect cells and purified nickel column extraction. Five ng of wild-type P110/P85α was used in the assay. The kinase reaction was started by the addition of ATP. The assay concentrations of both PIP2 and ATP were 10 μM. The reaction mixture was incubated for 30 minutes at room temperature and was terminated by the addition of stop mix and detection mix. Fluorescence was measured at 615 and 665 nm upon excitation at 340 nm in a Victor™ V5 fluorometer (Perkin Elmer, USA). The fluorescence emission ratio at 665 to 615 nm, proportional to the kinase activity, was plotted against the compound concentration to generate dose-response curves and IC50 values were determined using GraphPad Prism® 5 software.
The activity of PI3Kα mutations H1047R and E545K were assayed in a similar manner to the assay protocol described above for PI3Kα (wild type). The compounds of formula (I) caused inhibition of PI3Kα mutations H1047R (a mutation associated with breast and gastric cancers) and E545K (a mutation associated with colorectal tumors, glioblastomas, gastric cancers, breast cancers, and lung cancers). For example, each of the compounds of Example 3, 7, 21, 47, 48 and 49 caused inhibition of each of the PI3Kα mutations H1047R and E545K with IC50 values<50 nM.
For orientation: TR-FRET usually uses a lanthanide donor and a delayed reading to cut background.

A further test addresses PI3 kinase isoform δ (Homo sapiens, UniProt O00329). Briefly: PI3 Kinase TR-FRET assay, isoform δ. Type of test: biochemical. The conditions noted are these: read-out: inhibition of PI3 kinase isoform δ, IC50. As to the method: as §1, §2
The activity of PI3 kinase isoforms β, γ and δ were assayed in a similar manner to the assay protocol described above for PI3Kα, by substituting the appropriate p110/p85 isoform for the p110α/p85α. Compounds of formula (I) caused inhibition of PI3 kinase isoforms β, γ and δ as determined by these assays. For example, the compounds of Examples 3 and 21 each caused inhibition of PI3 kinase isoform β with IC50 values<500 nM. The compounds of Examples 3, 7, 21, 47, 48 and 49 each caused inhibition of PI3 kinase isoform γ with IC50 values<500 nM. The compounds of Example 3, 7, 47, 48, and 49 caused inhibition of PI3 kinase isoform δ with IC50 values<1 μM.

Sequence of PI3 kinase isoform δ (O00329 whole entry, canonical isoform): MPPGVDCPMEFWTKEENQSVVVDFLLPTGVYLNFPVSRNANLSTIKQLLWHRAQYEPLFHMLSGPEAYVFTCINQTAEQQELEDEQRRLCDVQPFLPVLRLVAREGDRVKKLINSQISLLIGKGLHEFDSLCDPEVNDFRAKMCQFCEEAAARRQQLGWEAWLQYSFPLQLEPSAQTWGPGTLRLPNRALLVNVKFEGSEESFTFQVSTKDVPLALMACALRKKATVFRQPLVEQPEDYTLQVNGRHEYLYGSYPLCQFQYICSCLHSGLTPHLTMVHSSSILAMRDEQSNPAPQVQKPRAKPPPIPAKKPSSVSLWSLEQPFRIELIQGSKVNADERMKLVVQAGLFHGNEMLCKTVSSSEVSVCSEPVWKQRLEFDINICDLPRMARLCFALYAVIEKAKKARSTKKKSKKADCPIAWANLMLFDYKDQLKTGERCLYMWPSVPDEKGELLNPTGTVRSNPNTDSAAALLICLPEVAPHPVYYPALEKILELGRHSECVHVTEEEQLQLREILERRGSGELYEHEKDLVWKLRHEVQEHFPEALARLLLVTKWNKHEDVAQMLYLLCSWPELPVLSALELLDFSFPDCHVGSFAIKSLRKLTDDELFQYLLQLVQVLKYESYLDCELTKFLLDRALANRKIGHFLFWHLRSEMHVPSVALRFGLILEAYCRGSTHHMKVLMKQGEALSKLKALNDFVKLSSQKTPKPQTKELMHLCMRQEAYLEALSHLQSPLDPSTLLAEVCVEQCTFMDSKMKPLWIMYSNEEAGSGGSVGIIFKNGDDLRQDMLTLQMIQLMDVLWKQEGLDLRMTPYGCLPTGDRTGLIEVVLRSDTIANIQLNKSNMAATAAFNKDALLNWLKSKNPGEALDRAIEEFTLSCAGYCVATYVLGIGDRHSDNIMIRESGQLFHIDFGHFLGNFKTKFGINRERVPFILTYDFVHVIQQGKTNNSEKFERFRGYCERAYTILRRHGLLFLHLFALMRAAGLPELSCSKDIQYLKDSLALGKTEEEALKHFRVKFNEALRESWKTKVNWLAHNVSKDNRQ
Sequence of PI3 kinase isoform δ (P27986 whole entry partner, canonical isoform): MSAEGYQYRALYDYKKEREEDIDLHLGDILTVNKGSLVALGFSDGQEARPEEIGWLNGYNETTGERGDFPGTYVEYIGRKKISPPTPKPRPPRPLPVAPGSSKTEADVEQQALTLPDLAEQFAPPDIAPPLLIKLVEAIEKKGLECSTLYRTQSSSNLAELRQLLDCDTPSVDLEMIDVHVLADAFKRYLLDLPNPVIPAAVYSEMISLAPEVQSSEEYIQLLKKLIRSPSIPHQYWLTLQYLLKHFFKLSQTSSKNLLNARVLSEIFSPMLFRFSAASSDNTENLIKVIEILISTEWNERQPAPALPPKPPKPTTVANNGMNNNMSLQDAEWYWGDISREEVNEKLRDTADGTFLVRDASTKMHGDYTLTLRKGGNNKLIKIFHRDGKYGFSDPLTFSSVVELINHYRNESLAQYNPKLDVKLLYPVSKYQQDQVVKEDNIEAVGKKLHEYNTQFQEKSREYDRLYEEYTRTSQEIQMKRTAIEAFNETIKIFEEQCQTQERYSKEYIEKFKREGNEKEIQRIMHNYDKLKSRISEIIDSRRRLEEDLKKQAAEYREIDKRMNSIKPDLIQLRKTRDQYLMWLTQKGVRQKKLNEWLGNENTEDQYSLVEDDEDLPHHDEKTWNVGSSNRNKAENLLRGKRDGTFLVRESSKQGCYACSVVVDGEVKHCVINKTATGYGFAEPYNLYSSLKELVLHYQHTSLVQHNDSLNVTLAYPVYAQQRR
Sequence of PI3Kα mutation H1047R (P42336 whole entry H1047R, the tested form may be a part, canonical isoform): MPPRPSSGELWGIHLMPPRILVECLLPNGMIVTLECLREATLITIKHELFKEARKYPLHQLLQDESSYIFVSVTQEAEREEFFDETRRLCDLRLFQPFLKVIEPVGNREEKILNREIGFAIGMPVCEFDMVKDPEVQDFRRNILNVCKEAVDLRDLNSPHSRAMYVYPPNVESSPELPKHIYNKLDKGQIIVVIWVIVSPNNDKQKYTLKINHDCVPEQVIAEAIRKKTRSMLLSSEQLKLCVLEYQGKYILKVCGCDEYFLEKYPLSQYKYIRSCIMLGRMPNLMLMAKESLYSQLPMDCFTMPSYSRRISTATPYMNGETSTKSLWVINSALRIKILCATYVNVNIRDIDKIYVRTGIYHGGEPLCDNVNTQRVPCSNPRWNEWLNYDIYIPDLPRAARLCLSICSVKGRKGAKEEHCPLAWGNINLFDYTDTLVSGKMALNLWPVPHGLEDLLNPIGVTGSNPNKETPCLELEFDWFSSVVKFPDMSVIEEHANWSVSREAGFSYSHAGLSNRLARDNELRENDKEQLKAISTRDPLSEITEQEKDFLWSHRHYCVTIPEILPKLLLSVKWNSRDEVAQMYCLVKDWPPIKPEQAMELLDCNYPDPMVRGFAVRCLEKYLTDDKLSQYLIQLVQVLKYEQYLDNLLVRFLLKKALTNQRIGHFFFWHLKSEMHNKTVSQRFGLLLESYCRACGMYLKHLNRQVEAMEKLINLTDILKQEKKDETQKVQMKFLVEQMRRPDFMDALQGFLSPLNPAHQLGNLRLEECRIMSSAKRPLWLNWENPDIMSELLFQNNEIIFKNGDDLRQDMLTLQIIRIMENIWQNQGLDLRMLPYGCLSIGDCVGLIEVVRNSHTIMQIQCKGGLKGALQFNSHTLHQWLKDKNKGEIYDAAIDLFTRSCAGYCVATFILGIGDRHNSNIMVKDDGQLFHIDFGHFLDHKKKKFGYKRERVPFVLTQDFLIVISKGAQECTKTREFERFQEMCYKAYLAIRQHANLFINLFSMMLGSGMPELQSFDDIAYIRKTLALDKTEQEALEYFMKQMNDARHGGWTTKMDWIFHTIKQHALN
Sequence of PI3Kα mutation H1047R (P27986 whole entry partner, the tested form may be a part, canonical isoform): as the sequence (P27986 whole entry partner, canonical isoform) above

Take `N#CC1(C(=O)Nc2cccc(-c3cnc4c(N5CCOCC5)nc(-c5cnc(N)nc5)nc4c3)c2)CC1` [Example 61, N-(3-(2-(2-amino-pyrimidin-5-yl)-4-morpholinopyrido[3,2-d]pyrimidin-7-yl)phenyl)-1-cyanocyclopropane-carboxamide]: in the test on pS6RP, the “suppression of pS6RP” value is “suppression”.

The IC50 is the concentration at which inhibition is half-maximal. `CC(=O)Nc1cccc(-c2cnc3c(N4CCOCC4)nc(-c4cnc(N)nc4)nc3c2)c1` [Example 3, N-(3-(2-(2-Aminopyrimidin-5-yl)-4-morpholinopyrido[3,2-d]pyrimidin-7-yl)-phenyl)acetamide]: the IC50 at PI3Kα mutation H1047R is below 0.05 µM; on PI3 kinase isoform δ, below 1 µM. In addition, the “suppression of pS6RP” value in the test on pS6RP is given as “suppression”.

Turning to `Nc1ncc(-c2nc(N3CCOCC3)c3ncc(-c4cccc(NC(=O)C5CC5)c4)cc3n2)cn1` [Example 7, N-(3-(2-(2-Aminopyrimidin-5-yl)-4-morpholinopyrido[3,2-d]pyrimidin-7-yl)-phenyl)cyclopropanecarboxamide], the IC50 at PI3Kα mutation H1047R is below 0.05 µM; on PI3 kinase isoform δ, below 1 µM.
